Results taken from US7273861B2, “Non-nucleoside reverse transcriptase inhibitors” (Boehringer Ingelheim (Canada) Ltd., priority 2002, dated 2007).
Where two headings read alike, the source gives them in different places.

Experiments:
[1] = target: T1, HIV-1 RT WT (Human immunodeficiency virus type 1 group M subtype B, UniProt P03366); assay: Reverse Transcriptase (RT) assay, wild type; format: biochemical
T1 construct: mutations that occur in the reverse transcriptase segment of the pol gene
Text: (§1) Based upon testing of these compounds, as described below, it is known that they inhibit the RNA-dependent DNA polymerase activity of HIV-1 RT. Utilizing the Reverse Transcriptase (RT) Assay described below, compounds can be tested for their ability to inhibit the RNA-dependent DNA polymerase activity of HIV-1 RT. Certain specific compounds described in the Examples which appear below, were so tested. The results of this testing appear in Table 2 as IC50 (nM) and EC50 (nM).
(§2) The assays are as described in WO 01/96338A1, the contents of which are hereby incorporated herein. The results are listed in Table 2 as IC50(nM) and EC50 (nM).

[2] = target: T2, HIV-1 RT K103N/Y181C (Human immunodeficiency virus type 1 group M subtype B, UniProt P03366, K702N/Y780C); assay: Reverse Transcriptase (RT) assay, double mutant K103N/Y181C; format: biochemical
T2 construct: mutations that occur in the reverse transcriptase segment of the pol gene
Text: as §1, §2

[3] = system: wild type HIV-1 replication; assay: Cell-based assay, wild type HIV
Text: as §2

| Compound | IC50 ([1]; wild type RT, read-out: IC50 WT) [µM] | IC50 ([2]; double mutant K103N/Y181C RT, read-out: IC50 K103N/Y181C) [µM] | EC50 [3] [µM] | IC50 [1] [µM] | IC50 [2] [µM] | EC50 ([3]; Human immunodeficiency virus 1) [µM] |
| --- | --- | --- | --- | --- | --- | --- |
| 4′-{(9H-imidazo[1,2-d]dipyrido[2,3-b:3′,2′-f][1,4]diazepin-12-yl)ethoxy}-3′-methyl-[1,1′-biphenyl]4-acetic acid [Entry 119] | < 0.05 | < 0.05 | < 0.01 |  |  |  |
| CCN1c2ncc(CCOc3cccc4c3CNC(=O)N4)cc2-c2nc(C)cn2-c2cccnc21 [Entry 101] |  |  |  | < 0.05 | > 0.1 |  |
| CCN1c2ncc(CCOc3cccc4c3C=CS(=O)(=O)N4C)cc2-c2ncc(C)n2-c2cccnc21 [Entry 102] |  |  |  | < 0.05 | < 0.05 | < 0.01 |
| CCN1c2ncc(CCOc3cccc4c3CNC4=O)cc2-c2ncc(C)n2-c2cccnc21 [Entry 103] |  |  |  | < 0.05 | > 0.1 | < 0.01 |
| CCN1c2ncc(CCOc3cccc4c3CCS(=O)(=O)N4)cc2-c2ncc(C)n2-c2cccnc21 [Entry 104] |  |  |  | < 0.05 | 0.05 to 0.1 |  |
| CCN1c2ncc(CCOc3cccc4c3CNS4(=O)=O)cc2-c2ncc(C)n2-c2cccnc21 [Entry 105] |  |  |  | < 0.05 | < 0.05 |  |
| CCN1c2ncc(CCOc3cccc4c3COC(=O)N4)cc2-c2ncc(C)n2-c2cccnc21 [Entry 106] |  |  |  | < 0.05 | > 0.1 |  |
| CCN1c2ncc(CCOc3ccc4c(c3)C(C)(C)NS4(=O)=O)cc2-c2nccn2-c2c(C)ccnc21 [Entry 107] |  |  |  | < 0.05 | < 0.05 |  |
| CCN1c2ncc(CCOc3cccc4c3CNC(=O)N4)cc2-c2nccn2-c2c(C)ccnc21 [Entry 108] |  |  |  | < 0.05 | < 0.05 |  |
| CCN1c2ncc(CCOc3cccc4c3CNC(=O)N4)cc2-c2nccn2-c2cccnc21 [Entry 109] |  |  |  | < 0.05 | < 0.05 |  |
| CCN1c2ncc(CCOc3cccc4c3CCNC4=O)cc2-c2ncc(C)n2-c2cccnc21 [Entry 110, 9-Ethyl-3-methyl-12-{2-{(1,2,3,4-ttrahydro-1-oxo-5-isoquinolinyl)oxy}ethyl}-9H-imidazo[1,2-d]dipyrido[2,3-b:3′,2′-f][1,4]diazepine] |  |  |  | < 0.05 | > 0.1 |  |
| CCN1c2ncc(CCOc3cccc4c3CN(C)C(=O)N4C)cc2-c2ncc(C)n2-c2cccnc21 [Entry 111] |  |  |  | < 0.05 | > 0.1 |  |
| CCOC(=O)N1c2cccc(OCCc3cnc4c(c3)-c3nccn3-c3c(C)ccnc3N4CC)c2CS1(=O)=O [Entry 112] |  |  |  | < 0.05 | < 0.05 |  |
| CCN1c2ncc(CCOc3cccc4c3CS(=O)(=O)N4)cc2-c2nccn2-c2c(C)ccnc21 [Entry 113] |  |  |  | < 0.05 | 0.05 to 0.1 |  |
| CCN1c2ncc(CCOc3cccc4c3CS(=O)(=O)N4CC(=O)OC(C)(C)C)cc2-c2nccn2-c2c(C)ccnc21 [Entry 114] |  |  |  | < 0.05 | 0.05 to 0.1 |  |
| CCN1c2ncc(CCOc3cccc4c3CS(=O)(=O)N4CC(=O)O)cc2-c2nccn2-c2c(C)ccnc21 [Entry 115] |  |  |  | < 0.05 | 0.05 to 0.1 | > 0.05 |
| CCN1c2ncc(CCOc3ccc(C(=O)O)cc3C)cc2-c2nccn2-c2cccnc21 [Entry 117] |  |  |  | < 0.05 | > 0.1 | < 0.01 |
| CCN1c2ncc(CCOc3ccc(C(=O)O)cc3C)cc2-c2ncc(C)n2-c2cccnc21 [Entry 118] |  |  |  | < 0.05 | < 0.05 |  |
| CCN1c2ncc(CCOc3ccc(-c4ccc(CC(=O)O)cc4)cc3C)cc2-c2ncc(C)n2-c2cccnc21 [Entry 120] |  |  |  | < 0.05 | 0.05 to 0.1 |  |
| CCN1c2ncc(CCOc3ccc(C(=O)O)c4c3CCCC4)cc2-c2ncc(C)n2-c2cccnc21 [Entry 121] |  |  |  | < 0.05 | > 0.1 |  |
| CCN1c2ncc(CCOc3ccc(C(=O)O)c4ccccc34)cc2-c2ncc(C)n2-c2cccnc21 [Entry 122] |  |  |  | < 0.05 | > 0.1 |  |
